Test results from ChEMBL document CHEMBL4422644, “Synthesis and evaluation of α-aminoacyl amides as antitubercular agents effective on drug resistant tuberculosis” (Eur J Med Chem, 2019).
≈ marks a conversion by molar mass, not a printed value.

How the values were obtained:
Mycobacteroides chelonae = experiment: Antibacterial activity against Mycobacterium chelonae after 7 days by alamar blue assay; assay type: functional; settings: 168 h
DU-145 = experiment: Cytotoxicity against human DU145 cells after 24 hrs by MTT assay; assay type: functional, cell-based; settings: DU-145, 24 h
MCF7 = experiment: Cytotoxicity against human MCF7 cells after 24 hrs by MTT assay; assay type: functional, cell-based; settings: MCF7, 24 h
HeLa = experiment: Cytotoxicity against human HeLa cells after 24 hrs by MTT assay; assay type: functional, cell-based
HepG2 = experiment: Cytotoxicity against human HepG2 cells after 24 hrs by MTT assay; assay type: functional, cell-based; settings: HepG2, 24 h
A549 = experiment: Cytotoxicity against human A549 cells after 24 hrs by MTT assay; assay type: functional, cell-based; settings: A549, 24 h
[1] = Cytotoxicity against HEK cells after 24 hrs by MTT assay; assay type: cell-based; settings: Homo sapiens, HEK293, 24 h
Pseudomonas aeruginosa = experiment: Antibacterial activity against Pseudomonas aeruginosa ATCC 27853 after 24 hrs; assay type: functional; settings: ATCC 27853, 24 h
Klebsiella pneumoniae = experiment: Antibacterial activity against Klebsiella pneumoniae ATCC BAA-1705 after 24 hrs; assay type: functional; settings: ATCC BAA-1705, 24 h
[2] = system: Mycolicibacterium fortuitum; experiment: Antibacterial activity against Mycobacterium fortuitum after 7 days by alamar blue assay; assay type: functional; settings: 168 h
[3] = Selectivity index, ratio of IC50 for CHOK1 cells to MIC for Mycobacterium tuberculosis H37Rv; assay type: toxicity; settings: hamster, read-out: Selectivity Index
[4] = system: Mycobacteroides abscessus; experiment: Antibacterial activity against Mycobacterium abscessus after 7 days by alamar blue assay; assay type: functional; settings: 168 h
Escherichia coli = experiment: Antibacterial activity against Escherichia coli ATCC 25922 after 24 hrs; assay type: functional; settings: ATCC 25922, 24 h
Staphylococcus aureus = experiment: Antibacterial activity against Staphylococcus aureus ATCC 29213 after 24 hrs; assay type: functional; settings: ATCC 29213, 24 h
Acinetobacter baumannii = experiment: Antibacterial activity against Acinetobacter baumannii ATCC BAA-1605 after 24 hrs; assay type: functional; settings: ATCC BAA-1605, 24 h
CHO-K1 = experiment: Cytotoxicity against CHOK1 cells after 24 hrs by MTT assay; assay type: cell-based; settings: Cricetulus griseus, CHO-K1, 24 h
[5] = system: Mycobacterium tuberculosis; experiment: Antitubercular activity against Mycobacterium tuberculosis H37Rv after 7 days by alamar blue assay; assay type: functional; settings: 168 h
[6] = Cytotoxicity against […] B16 cells after 24 hrs by MTT assay; assay type: functional, cell-based; settings: B16, 24 h
[7] = Selectivity index, ratio of IC50 for HEK cells to MIC for Mycobacterium tuberculosis H37Rv; assay type: toxicity; settings: human, read-out: Selectivity Index

| Compound | MIC (Mycobacteroides chelonae) | IC50 (DU-145) | IC50 (MCF7) | IC50 (HeLa) | IC50 (HepG2) | IC50 (A549) | IC50 [1] | MIC (Pseudomonas aeruginosa) | MIC (Klebsiella pneumoniae) | MIC [2] | selectivity ratio [3] | MIC [4] | MIC (Escherichia coli) | MIC (Staphylococcus aureus) | MIC (Acinetobacter baumannii) | IC50 (CHO-K1) | MIC [5] | IC50 [6] | selectivity ratio [7] |
| --- | --- | --- | --- | --- | --- | --- | --- | --- | --- | --- | --- | --- | --- | --- | --- | --- | --- | --- | --- |
| Cc1ccc(N(C(=O)c2sc(C)nc2C)C(C(=O)NC2CCCCC2)c2c(F)cc(Br)cc2F)cc1 (stereo not given) | > 50 µM | 12.6 µM | 4.08 µM | 22.2 µM | 4.79 µM | 11.7 µM | 58.3 µM | > 50 µM | > 50 µM | > 50 µM | 8.5 | > 50 µM | > 50 µM | > 50 µM | > 50 µM | 53.3 µM | 6.25 µM (≈ 3.6 µg/mL) | 10.8 µM | – |
| Cc1cccc(N(C(=O)C2CCCCN2)C(C(=O)NC2CCCCC2)c2ccccc2)c1C (stereo not given) | > 50 µM | 8.82 µM | 3.31 µM | 10.3 µM | 10.6 µM | 9.74 µM | 174 µM | > 50 µM | > 50 µM | > 50 µM | 4.3 | > 50 µM | > 50 µM | > 50 µM | > 50 µM | 54.4 µM | 3.12 µM (≈ 1.4 µg/mL) | 16.4 µM | 55.7 |
| Cc1ccc(N(C(=O)c2sc(C)nc2C)C(C(=O)NC2CCCCC2)c2ccc(Cl)cc2)cc1 (stereo not given) | > 50 µM | 9 µM | 3.19 µM | 11.9 µM | 5.33 µM | 10.3 µM | 11.8 µM | > 50 µM | > 50 µM | > 50 µM | 8.9 | > 50 µM | > 50 µM | > 50 µM | > 50 µM | 7.37 µM | 0.78 µM (≈ 0.387 µg/mL) | 23 µM | – |
| Cc1ccc(N(C(=O)c2sc(C)nc2C)C(C(=O)NC2CCCCC2)c2ccccc2)c(C)c1 (stereo not given) | > 50 µM | 11.4 µM | 11.7 µM | 9.43 µM | 12.6 µM | 8.63 µM | 47 µM | > 50 µM | > 50 µM | > 50 µM | 3.4 | > 50 µM | > 50 µM | > 50 µM | > 50 µM | 43 µM | 12.5 µM (≈ 5.95 µg/mL) | 29.8 µM | – |
| Cc1nc(C)c(C(=O)N(c2cccc(C)c2C)C(C(=O)NCc2ccccc2)c2ccccc2)s1 (stereo not given) | > 50 µM | 12.6 µM | 5.62 µM | 11.7 µM | 8.13 µM | 12.7 µM | 31.2 µM | > 50 µM | > 50 µM | > 50 µM | 4.9 | > 50 µM | > 50 µM | > 50 µM | > 50 µM | 30.2 µM | 6.12 µM (≈ 2.96 µg/mL) | 12.4 µM | – |
| Cc1ccc(N(C(=O)c2sc(C)nc2C)C(C(=O)NC2CCCCC2)c2ccncc2)cc1 (stereo not given) | > 50 µM | 14.5 µM | 10.3 µM | 11 µM | 12 µM | 11.6 µM | 81.1 µM | > 50 µM | > 50 µM | > 50 µM | 11.3 | > 50 µM | > 50 µM | > 50 µM | > 50 µM | 141 µM | 12.5 µM (≈ 5.78 µg/mL) | 23.9 µM | – |
| Cc1ccc(N(C(=O)c2sc(C)nc2C)C(C(=O)NC2CCCCC2)c2cccnc2)cc1 (stereo not given) | > 50 µM | 16.6 µM | 5.99 µM | 9.11 µM | 6.75 µM | 11.7 µM | 59.1 µM | > 50 µM | > 50 µM | > 50 µM | 51.6 | > 50 µM | > 50 µM | > 50 µM | > 50 µM | 161 µM | 3.12 µM (≈ 1.44 µg/mL) | 17.7 µM | 18.9 |
| Cc1ccc(N(C(=O)c2c(C)noc2C)C(C(=O)NC2CCCCC2)c2cccnc2)cc1 (stereo not given) | > 50 µM | 11 µM | 5.39 µM | 18.2 µM | 10.3 µM | 12.9 µM | 82 µM | > 50 µM | > 50 µM | > 50 µM | 17.9 | > 50 µM | > 50 µM | > 50 µM | > 50 µM | 112 µM | 6.12 µM (≈ 2.73 µg/mL) | 40 µM | – |
| Cc1cccc(N(C(=O)c2ccc[nH]2)C(C(=O)NC2CCCCC2)c2ccccc2)c1C (stereo not given) | > 50 µM | 11.2 µM | 3.58 µM | 14.2 µM | 11 µM | 6.83 µM | 116 µM | > 50 µM | > 50 µM | > 50 µM | 10.7 | > 50 µM | > 50 µM | > 50 µM | > 50 µM | 134 µM | 12.5 µM (≈ 5.37 µg/mL) | 12.3 µM | – |
| Cc1ccc(N(C(=O)c2ccc[nH]2)C(C(=O)NC2CCCCC2)c2ccccc2)c(C)c1 (stereo not given) | > 50 µM | 9.3 µM | 15.5 µM | 10.9 µM | 13.5 µM | 15.5 µM | 33.2 µM | > 50 µM | > 50 µM | > 50 µM | 10.8 | > 50 µM | > 50 µM | > 50 µM | > 50 µM | 68.2 µM | 6.25 µM (≈ 2.68 µg/mL) | 32.5 µM | – |
| Cc1ccc(N(C(=O)c2c(C)noc2C)C(C(=O)NC2CCCCC2)c2ccncc2)cc1 (stereo not given) | > 50 µM | 9.53 µM | 4.24 µM | 15.8 µM | 8.48 µM | 11 µM | 71.3 µM | > 50 µM | > 50 µM | > 50 µM | 26.6 | > 50 µM | > 50 µM | > 50 µM | > 50 µM | 166 µM | 6.12 µM (≈ 2.73 µg/mL) | 28.6 µM | – |
| Cc1ccc(N(C(=O)c2sc(C)nc2C)C(C(=O)NC2CCCCC2)c2ccc[nH]2)cc1 (stereo not given) | > 50 µM | 12.7 µM | 4.25 µM | 11.6 µM | 6.13 µM | 11.7 µM | 15.4 µM | > 50 µM | > 50 µM | > 50 µM | 5.3 | > 50 µM | > 50 µM | > 50 µM | > 50 µM | 33.4 µM | 6.25 µM (≈ 2.82 µg/mL) | 14.5 µM | – |
| Cc1ccc(N(C(=O)c2sc(C)nc2C)C(C(=O)NC2CCCCC2)c2ccccc2)cc1 (stereo not given) | > 50 µM | 14 µM | 3.69 µM | 10.7 µM | 11.8 µM | 1.48 µM | 37 µM | > 50 µM | > 50 µM | > 50 µM | 10.9 | > 50 µM | > 50 µM | > 50 µM | > 50 µM | 17.9 µM | 1.56 µM (≈ 0.72 µg/mL) | 13.9 µM | – |
| Cc1cccc(N(C(=O)c2ccc[nH]2)C(C(=O)NC2CCCCC2)c2ccncc2)c1C (stereo not given) | > 50 µM | 10.8 µM | 5.85 µM | 13.1 µM | 8.95 µM | 15.8 µM | 108 µM | > 50 µM | > 50 µM | > 50 µM | 22.6 | > 50 µM | > 50 µM | > 50 µM | > 50 µM | 142 µM | 6.25 µM (≈ 2.69 µg/mL) | 16.6 µM | – |
| Cc1cccc(N(C(=O)c2cccs2)C(C(=O)NC2CCCCC2)c2ccccc2)c1C (stereo not given) | > 50 µM | 9.14 µM | 16.9 µM | 12.7 µM | 9.63 µM | 17.9 µM | 22.9 µM | > 50 µM | > 50 µM | > 50 µM | 12.2 | > 50 µM | > 50 µM | > 50 µM | > 50 µM | 38.2 µM | 3.12 µM (≈ 1.39 µg/mL) | 14.3 µM | – |
| Cc1nc(C)c(C(=O)N(c2cccc(C)c2C)C(C(=O)NC2CCCCC2)c2ccc(Cl)cc2)s1 (stereo not given) | > 50 µM | 8.53 µM | 4.12 µM | 13.9 µM | 6.15 µM | 9.2 µM | 90.5 µM | > 50 µM | > 50 µM | > 50 µM | 3.5 | > 50 µM | > 50 µM | > 50 µM | > 50 µM | 11.4 µM | 3.12 µM (≈ 1.59 µg/mL) | 21 µM | – |
